Molecular target: Baculoviral IAP repeat-containing protein 2 (Homo sapiens) (UniProt Q13490)
Assay: Inhibition of human recombinant His-tagged cIAP1 protein BIR3 domain (250 to 350 amino acid residues) using biotinylated-Smac as substrate after overnight incubation by HTRF assay

Baculoviral IAP repeat-containing protein 2 (Homo sapiens), sequence (Q13490 whole entry, looked up, the tested form may be a part): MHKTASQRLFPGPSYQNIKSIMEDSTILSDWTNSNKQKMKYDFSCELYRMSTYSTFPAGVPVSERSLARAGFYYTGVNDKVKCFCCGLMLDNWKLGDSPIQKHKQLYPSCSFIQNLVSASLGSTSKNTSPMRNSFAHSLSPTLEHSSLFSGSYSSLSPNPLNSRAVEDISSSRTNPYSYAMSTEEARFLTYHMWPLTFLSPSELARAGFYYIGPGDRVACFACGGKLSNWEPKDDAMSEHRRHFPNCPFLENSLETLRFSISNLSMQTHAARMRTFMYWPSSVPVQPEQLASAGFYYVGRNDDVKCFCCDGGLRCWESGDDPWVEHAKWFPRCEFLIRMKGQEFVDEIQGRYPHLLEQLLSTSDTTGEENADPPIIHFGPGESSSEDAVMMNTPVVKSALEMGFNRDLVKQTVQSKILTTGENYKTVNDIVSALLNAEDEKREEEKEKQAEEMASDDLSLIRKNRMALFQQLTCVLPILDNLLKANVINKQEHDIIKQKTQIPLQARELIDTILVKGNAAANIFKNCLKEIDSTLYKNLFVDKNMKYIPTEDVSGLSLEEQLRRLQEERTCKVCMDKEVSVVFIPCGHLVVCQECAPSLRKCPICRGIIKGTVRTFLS

IC50	SMILES
1.3 nM	CCO[C@@H]1C[C@@H]2CN(C(=O)[C@@H](NC(=O)[C@H](C)NC)C3CCC(F)(F)CC3)[C@H](C(=O)N[C@@H]3CCOc4ccccc43)CN2C1
4.9 nM	CN[C@@H](C)C(=O)N[C@H](C(=O)N1C[C@H]2C[C@@H](O)CN2C[C@H]1C(=O)N[C@@H]1CCOc2ccccc21)C1CCC(F)(F)CC1
1.7 nM	CN[C@@H](C)C(=O)N[C@H](C(=O)N1C[C@H]2CC(F)(F)CN2C[C@H]1C(=O)N[C@@H]1CCOc2ccccc21)C1CCC(F)(F)CC1
2.5 nM	CN[C@@H](C)C(=O)N[C@H](C(=O)N1C[C@@H]2CCCN2C[C@H]1C(=O)N[C@@H]1CCOc2ccccc21)C1CCC(F)(F)CC1
3.4 nM	CN[C@@H](C)C(=O)N[C@H](C(=O)N1C[C@H]2CCCN2C[C@H]1C(=O)N[C@@H]1CCOc2ccccc21)C1CCOCC1
3.2 nM	CN[C@@H](C)C(=O)N[C@H](C(=O)N1C[C@H]2CCCN2C[C@H]1C(=O)N[C@@H]1CCOc2ccccc21)C1CCC(F)(F)CC1
2.6 nM	CN[C@@H](C)C(=O)N[C@H](C(=O)N1C[C@H]2CCCN2C[C@H]1C(=O)N[C@@H]1CCOc2ccccc21)c1ccccc1
7.6 nM	CN[C@@H](C)C(=O)N[C@H](C(=O)N1C[C@H]2CCCN2C[C@H]1C(=O)N[C@@H]1CCC(=O)c2ccccc21)C1CCCCC1
4 nM	CN[C@@H](C)C(=O)N[C@H](C(=O)N1C[C@H]2CCCN2C[C@H]1C(=O)N[C@@H]1CCC(F)(F)c2ccccc21)C1CCCCC1
1300 nM	CN[C@@H](C)C(=O)N[C@H](C(=O)N1C[C@H]2CCCN2C[C@H]1C(=O)N[C@H]1CCCc2ccccc21)C1CCCCC1
2.7 nM	CN[C@@H](C)C(=O)N[C@H](C(=O)N1C[C@H]2CCCN2C[C@H]1C(=O)N[C@@H]1CCCc2ccccc21)C1CCCCC1
14 nM	CN[C@@H](C)C(=O)N[C@H](C(=O)N1C[C@H]2CCCN2C[C@H]1C(=O)N[C@H](C)c1ccccc1)C1CCCCC1

— BindingDB's records for doi:10.1021/jm301674z (Takeda Pharmaceutical, 2013)
